In patent US20240124408A1 (Sanofi, priority 2020, published 2024):

How the values were obtained:
Format in all cases: cell-based
pig TRPM8 [1] = target: T1, pig TRPM8 (Sus scrofa, UniProt F1SM15); test: In vitro pig TRPM8 fluorescence calcium flux assay (recombinant CHO cells, Fluo4-AM, FDSS6000); settings: recombinant CHO cells expressing pig TRPM8; menthol-related EC50, normalized to 100 μM menthol
T1 construct: expressed in transfected cells; host or cells: CHO (pcDNA5/FRT/TO vector; hygromycin B and blasticidin selection)
How it was run: (§1)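 Agonist EC50 values come from sixteen-point dose responses normalized to the 100 μM menthol maximum, fitted sigmoidally. Calcium rise was followed for 3 min post-addition in recombinant CHO lines (human or pig TRPM8). Cells were dye-loaded with 2 μM Fluo4-AM, 1 h at room temperature, probenecid-containing HBSS.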

pig TRPM8 [2] = target: T1, pig TRPM8; test: In vitro pig TRPM8 automated patch-clamp assay (SyncroPatch 384PE, CHO cells); settings: CHO cells expressing pig TRPM8, 28° C.
Description: (§2) In Vitro Pig and Human TRPM8 Automated Patch-Clamp Assays
(§3) Automated whole-cell recordings of compound effects were performed on the SyncroPatch 384PE (Nanion Technologies, Munich, Germany) incorporated into a Biomek FX pipetting robot (Beckman Coulter, Jersey City, NJ, USA) using the same engineered CHO cell lines expressing human or pig TRPM8 channels. Data acquisition and analysis were performed with the proprietary software PatchControl 384 and DataControl 384, respectively (Nanion Technologies, Munich, Germany). All recordings were carried out using planar borosilicate glass patch clamp chips in a 384-microtiter plate format with patch hole resistances of 2-4 MO. For recordings, standard intracellular solution was used containing (in mM): 130 KF, 4 NaCl, 1 MgCl2, 0.5 CaCl2, 10 HEPES and 10 EGTA/KOH (pH 7.2) and standard extracellular solution contained in mM: 150 NaCl, 4 KCl, 0.5 CaCl2, 1 MgCl2 and 10 HEPES (pH 7.3).
(§4) Prior to the electrophysiological measurements, cells were harvested using Accutase (GIBCO, Fisher Scientific) and resuspended in warmed extracellular solution. The cell suspension was kept in the dedicated cell reservoir at 28° C. at a 1 million/ml cell density and shaken at 500 rounds per min (rpm). Experiments were performed at 28° C. throughout. Cells were distributed in high resistance 4-holes-per-well Nanion chips where they were caught on the patch holes by application of a −80 mbar pressure. The cell membrane was ruptured to obtain the whole-cell configuration with a pressure pulse of −250 mbar for 2 seconds. Voltage protocols were constructed using PatchControl 384. The cells were held at a holding potential of −60 mV and TRPM8 currents were recorded using a ramp protocol from −80 to +80 mV every 5 seconds before and after compound addition. Resulting currents were recorded at both −80 and +80 mV and current kinetics were exported and analyzed. From each plate, control wells with 200 μM menthol were recorded to validate the assay. One concentration of compound was applied to each of the other wells. For each concentration, compound response was determined by subtracting the baseline current recorded before compound addition from the maximum peak elicited currents obtained after compound addition. Then, each compound response was normalized to control condition without compound and maximum current (Emax) obtained for each compound. Nanion DataControl 384 software plotted current response for each compound concentration and was able to calculate an EC50 value for each active compound.

human TRPM8 [3] = target: T2, human TRPM8 (Homo sapiens, UniProt Q7Z2W7); test: In vitro human TRPM8 automated patch-clamp assay (SyncroPatch 384PE, CHO cells); settings: CHO cells expressing human TRPM8, 28° C.
T2 construct: expressed in transfected cells; host or cells: CHO (p658 mammalian expression vector)
Description: as §2, §3, §4

human TRPM8 [4] = target: T2, human TRPM8; test: In vitro human TRPM8 fluorescence calcium flux assay (recombinant CHO cells, Fluo4-AM, FDSS6000); settings: recombinant CHO cells expressing human TRPM8; menthol-related EC50, normalized to 100 μM menthol
How it was run: as §1

T1 sequence (F1SM15 1-1104): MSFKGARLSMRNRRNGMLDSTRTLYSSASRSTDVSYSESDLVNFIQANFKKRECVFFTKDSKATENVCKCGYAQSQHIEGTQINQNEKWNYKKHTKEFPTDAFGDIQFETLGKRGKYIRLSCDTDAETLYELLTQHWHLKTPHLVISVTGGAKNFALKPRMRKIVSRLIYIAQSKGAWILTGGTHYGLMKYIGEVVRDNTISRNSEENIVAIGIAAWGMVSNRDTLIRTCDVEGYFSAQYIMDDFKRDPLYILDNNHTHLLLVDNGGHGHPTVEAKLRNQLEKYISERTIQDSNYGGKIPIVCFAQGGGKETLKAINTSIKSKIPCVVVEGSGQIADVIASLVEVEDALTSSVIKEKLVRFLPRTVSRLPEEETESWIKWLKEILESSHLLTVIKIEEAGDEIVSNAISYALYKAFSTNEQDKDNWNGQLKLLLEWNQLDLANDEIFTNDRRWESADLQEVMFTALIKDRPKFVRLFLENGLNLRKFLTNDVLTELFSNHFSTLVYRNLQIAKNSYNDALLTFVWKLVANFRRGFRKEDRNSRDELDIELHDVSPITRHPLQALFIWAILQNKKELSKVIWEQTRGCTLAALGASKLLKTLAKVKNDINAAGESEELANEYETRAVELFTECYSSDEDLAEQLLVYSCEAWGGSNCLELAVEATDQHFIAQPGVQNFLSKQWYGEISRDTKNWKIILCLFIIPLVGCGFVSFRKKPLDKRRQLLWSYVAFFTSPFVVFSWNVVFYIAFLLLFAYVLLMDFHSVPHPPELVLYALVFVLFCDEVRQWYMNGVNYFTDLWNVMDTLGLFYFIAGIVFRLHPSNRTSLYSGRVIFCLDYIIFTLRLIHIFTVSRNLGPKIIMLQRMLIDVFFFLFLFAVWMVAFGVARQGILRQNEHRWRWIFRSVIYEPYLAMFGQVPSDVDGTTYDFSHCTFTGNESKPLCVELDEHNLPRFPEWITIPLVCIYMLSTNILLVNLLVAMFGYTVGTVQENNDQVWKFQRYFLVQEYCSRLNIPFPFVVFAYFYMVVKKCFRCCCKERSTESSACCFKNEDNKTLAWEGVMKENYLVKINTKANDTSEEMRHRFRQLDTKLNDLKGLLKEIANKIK
T2 sequence (Q7Z2W7 whole entry): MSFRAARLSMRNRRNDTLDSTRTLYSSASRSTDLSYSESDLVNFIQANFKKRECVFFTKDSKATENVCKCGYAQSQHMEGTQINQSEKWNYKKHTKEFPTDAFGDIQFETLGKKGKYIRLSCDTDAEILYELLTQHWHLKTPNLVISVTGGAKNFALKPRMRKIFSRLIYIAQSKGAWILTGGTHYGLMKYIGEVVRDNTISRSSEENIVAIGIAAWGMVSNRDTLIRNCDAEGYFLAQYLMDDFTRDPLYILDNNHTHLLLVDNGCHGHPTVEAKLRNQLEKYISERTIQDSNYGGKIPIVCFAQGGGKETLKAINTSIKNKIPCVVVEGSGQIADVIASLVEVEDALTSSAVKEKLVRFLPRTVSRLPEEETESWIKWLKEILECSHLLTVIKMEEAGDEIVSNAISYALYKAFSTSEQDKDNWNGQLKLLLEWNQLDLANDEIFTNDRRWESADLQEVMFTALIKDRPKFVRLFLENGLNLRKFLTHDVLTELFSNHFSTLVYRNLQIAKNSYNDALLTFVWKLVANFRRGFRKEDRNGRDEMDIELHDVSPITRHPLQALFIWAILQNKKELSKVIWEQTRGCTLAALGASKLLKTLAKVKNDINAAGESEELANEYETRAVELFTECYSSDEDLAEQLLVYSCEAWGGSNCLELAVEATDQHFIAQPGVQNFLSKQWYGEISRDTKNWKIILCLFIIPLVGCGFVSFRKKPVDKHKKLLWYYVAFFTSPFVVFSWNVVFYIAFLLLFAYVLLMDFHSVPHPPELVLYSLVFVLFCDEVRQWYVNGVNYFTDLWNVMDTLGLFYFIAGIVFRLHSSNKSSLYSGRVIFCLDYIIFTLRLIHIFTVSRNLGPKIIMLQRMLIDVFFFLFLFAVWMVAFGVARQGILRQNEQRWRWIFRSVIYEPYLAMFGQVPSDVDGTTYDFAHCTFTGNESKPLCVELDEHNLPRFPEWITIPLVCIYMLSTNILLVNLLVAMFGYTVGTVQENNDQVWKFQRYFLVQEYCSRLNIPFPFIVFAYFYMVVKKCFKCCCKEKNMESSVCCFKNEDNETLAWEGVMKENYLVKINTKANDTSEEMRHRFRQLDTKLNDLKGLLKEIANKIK

SMILES	EC50 (pig TRPM8 [1])	EC50 (pig TRPM8 [2])	EC50 (human TRPM8 [3])	EC50 (human TRPM8 [4])
CC(C)[C@@H]1CC[C@@H](C)C[C@@]1(O)C(=O)NCC(CO)c1ccccc1 (single isomer, unassigned) [Example 89]	47.6 nM	3250 nM	3300 nM	90.3 nM
CC(C)[C@@H]1CC[C@@H](C)C[C@@]1(O)C(=O)NCC(CO)c1ccccc1 (single isomer, unassigned) [Example 90]	14.4 nM	2000 nM	3000 nM	41.8 nM
CC(C)[C@@H]1CC[C@@H](C)C[C@@]1(O)C(=O)NCC(=O)NCc1ccccc1 [Example 30, (1S,2S,5R)—N-(2-(benzylamino)-2-oxoethyl)-1-hydroxy-2-isopropyl-5-methylcyclohexane-1-carboxamide]	766 nM	> 10000 nM		3250 nM
COC(=O)CO[C@H](CNC(=O)[C@]1(O)C[C@H](C)CC[C@H]1C(C)C)c1ccccc1 [Example 57, methyl 2-((S)-2-((1S,2S,5R)-1-hydroxy-2-isopropyl-5-methylcyclohexane-1-carboxamido)-1-phenylethoxy)acetate]	219 nM	> 10000 nM		254 nM
CC(C)[C@@H]1CC[C@@H](C)C[C@@]1(O)C(=O)N[C@H](CCO)c1ccccc1 [Example 86, (1S,2S,5R)-1-hydroxy-N—((R)-3-hydroxy-1-phenylpropyl)-2-isopropyl-5-methylcyclohexane-1-carboxamide]	749 nM	> 10000 nM		547 nM
COC(=O)c1ccccc1CCNC(=O)[C@]1(O)C[C@H](C)CC[C@H]1C(C)C [Example 106, methyl 2-(2-((1S,2S,5R)-1-hydroxy-2-isopropyl-5-methylcyclohexane-1-carboxamido)ethyl)benzoate]	23.2 nM	> 10000 nM		29.3 nM
CC(C)[C@@H]1CC[C@@H](C)C[C@@]1(O)C(=O)NCCO [Example 110, (1S,2S,5R)-1-hydroxy-N-(2-hydroxyethyl)-2-isopropyl-5-methylcyclohexane-1-carboxamide]	639 nM	> 10000 nM		1640 nM
COc1ccc2c(c1)OCC2CNC(=O)[C@]1(O)C[C@H](C)CC[C@H]1C(C)C (stereo partly drawn) [Example 154, (1S,2S,5R)-1-hydroxy-2-isopropyl-N-[(6-methoxy-2,3-dihydrobenzofuran-3-yl)methyl]-5-methyl-cyclohexanecarboxamide]	46 nM			85 nM
CC(C)[C@@H]1CC[C@@H](C)C[C@@]1(O)C(=O)NCC(O)c1ccccc1F (stereo partly drawn) [Example 157, (1S,2S,5R)-N-[2-(2-fluorophenyl)-2-hydroxy-ethyl]-1-hydroxy-2-isopropyl-5-methyl-cyclohexanecarboxamide]	4.7 nM			8.4 nM
CC(C)[C@@H]1CC[C@@H](C)C[C@@]1(O)C(=O)NCc1cccc(CO)c1 [Example 161, (1S,2S,5R)-1-hydroxy-N-[[3-(hydroxymethyl)phenyl]methyl]-2-isopropyl-5-methyl-cyclohexanecarboxamide]	516 nM			882 nM
CC(C)[C@@H]1CC[C@@H](C)C[C@@]1(O)C(=O)NCC1COc2ccccc21 (stereo partly drawn) [Example 162, (1S,2S,5R)-N-(2,3-dihydrobenzofuran-3-ylmethyl)-1-hydroxy-2-isopropyl-5-methyl-cyclohexanecarboxamide]	4 nM	1400 nM		5.3 nM
CC(C)[C@@H]1CC[C@@H](C)C[C@@]1(O)C(=O)NC(CCO)c1cccc(O)c1 (stereo partly drawn) [Example 163, (1S,2S,5R)-1-hydroxy-N-[3-hydroxy-1-(3-hydroxyphenyl)propyl]-2-isopropyl-5-methyl-cyclohexanecarboxamide]	940 nM			658 nM
CC(C)[C@@H]1CC[C@@H](C)C[C@@]1(O)C(=O)NCc1cccc(O)c1 [Example 165, (1S,2S,5R)-1-hydroxy-N-[(3-hydroxyphenyl)methyl]-2-isopropyl-5-methyl-cyclohexanecarboxamide]	369 nM			330 nM
CC(C)[C@@H]1CC[C@@H](C)C[C@@]1(O)C(=O)NCCc1ccc(O)c([N+](=O)[O-])c1 [Example 166, (1S,2S,5R)-1-hydroxy-N-[2-(4-hydroxy-3-nitro-phenyl)ethyl]-2-isopropyl-5-methyl-cyclohexanecarboxamide]	15.2 nM			16.6 nM
CC(C)[C@@H]1CC[C@@H](C)C[C@@]1(O)C(=O)NCCCc1ccc(O)cc1 [Example 167, (1S,2S,5R)-1-hydroxy-N-[3-(4-hydroxyphenyl)propyl]-2-isopropyl-5-methyl-cyclohexanecarboxamide]	91.8 nM			58.4 nM
CC(C)[C@@H]1CC[C@@H](C)C[C@@]1(O)C(=O)N[C@@H](C)CCc1ccc(O)cc1 [Example 168, (1S,2S,5R)-1-hydroxy-N-[(1S)-3-(4-hydroxyphenyl)-1-methyl-propyl]-2-isopropyl-5-methyl-cyclohexanecarboxamide]	343 nM			334 nM
CC(C)[C@@H]1CC[C@@H](C)C[C@@]1(O)C(=O)NCCc1c[nH]c2ccc(O)cc12 [Example 169, (1S,2S,5R)-1-hydroxy-N-[2-(5-hydroxy-1H-indol-3-yl)ethyl]-2-isopropyl-5-methyl-cyclohexanecarboxamide]	27.4 nM			20.9 nM
CC(C)[C@@H]1CC[C@@H](C)C[C@@]1(O)C(=O)N[C@@H](CO)Cc1ccc(O)cc1 [Example 170, (1S,2S,5R)-1-hydroxy-N-[(1R)-1-(hydroxymethyl)-2-(4-hydroxyphenyl)ethyl]-2-isopropyl-5-methyl-cyclohexanecarboxamide]	60.3 nM			37.1 nM
CC(C)[C@@H]1CC[C@@H](C)C[C@@]1(O)C(=O)N[C@@H]1CCc2ccc(O)cc2C1 [Example 171, (1S,2S,5R)-1-hydroxy-N-[(2R)-7-hydroxytetralin-2-yl]-2-isopropyl-5-methyl-cyclohexanecarboxamide]	6.1 nM			3.2 nM
CC(C)[C@@H]1CC[C@@H](C)C[C@@]1(O)C(=O)NCCc1cc(O)ccc1Br [Example 172, (1S,2S,5R)-N-[2-(2-bromo-5-hydroxy-phenyl)ethyl]-1-hydroxy-2-isopropyl-5-methyl-cyclohexanecarboxamide]	19 nM			9.7 nM
CC(C)[C@@H]1CC[C@@H](C)C[C@@]1(O)C(=O)NCCc1ccc(O)cc1O [Example 173, (1S,2S,5R)-N-[2-(2,4-dihydroxyphenyl)ethyl]-1-hydroxy-2-isopropyl-5-methyl-cyclohexanecarboxamide]	21.7 nM			24.6 nM
COc1ccc(NC(=O)[C@]2(O)C[C@H](C)CC[C@H]2C(C)C)cc1 [Example 174, (1S,2S,5R)-1-hydroxy-N-(4-methoxyphenyl)-5-methyl-2-propan-2-ylcyclohexane-1-carboxamide]	33.4 nM	2170 nM		119 nM
CC(C)[C@@H]1CC[C@@H](C)C[C@@]1(O)C(=O)NC[C@H](O)c1ccccc1 [Example 178, (1S,2S,5R)-1-hydroxy-N-((2R)-2-hydroxy-2-phenylethyl)-2-isopropyl-5-methylcyclohexane-1-carboxamide]	358 nM			1260 nM
COCCOCCOCCOc1cccc(CCNC(=O)[C@]2(O)C[C@H](C)CC[C@H]2C(C)C)c1 [Example 185, (1S,2S,5R)-1-hydroxy-2-isopropyl-N-[2-[3-[2-[2-(2-methoxyethoxy)ethoxy]ethoxy]phenyl]ethyl]-5-methyl-cyclohexanecarboxamide]	68.1 nM			110 nM
COc1cccc(C(F)(F)CNC(=O)[C@]2(O)C[C@H](C)CC[C@H]2C(C)C)c1 [Example 188, (1S,2S,5R)—N-[2,2-difluoro-2-(3-methoxyphenyl)ethyl]-1-hydroxy-2-isopropyl-5-methyl-cyclohexanecarboxamide]	24.1 nM			76.2 nM
